# According to US20050026949A1, “Methods of therapeutic treatment using amounts of retinoids without regard to body weight” (Allergan, Inc., priority 2003, published 2005):
# Experiments:
# [1] = test system: patients with severe nodulocystic acne; experiment: Multicenter double-blind placebo-controlled study of oral tazarotene (Example 10); assay type: in vivo, human; settings: for patients withdrawing due to lack of efficacy: placebo 17%; for reduction in mean facial papule or pastule count / reduction in mean facial non-inflammatory lesion count / reduction in mean total facial nodulocystic lesion count: end of treatment; for reduction in mean facial papule or pastule count: placebo 31%; for reduction in mean facial non-inflammatory lesion count: placebo 45%; for reduction in mean total facial nodulocystic lesion count: placebo 55%
# Excerpt: A multicenter, double-blind, randomized, placebo-controlled parallel-group study is undertaken to determine the efficacy of orally administered tazarotene in treating severe nodulocystic acne.
# In addition, washout periods for other medications for this study are: 1 week for vitamin A supplements >5000 IU; 2 weeks for topical anti-acne medications (e.g., retinoids, azelaic acid, benzoyl peroxide); 2 weeks for topical or systemic antibiotic therapy that may alter the course of acne; and 6 months for systemic retinoids.
# Patients are randomized to receive placebo or oral tazarotene (0.75, 1.5, 3, or 6 mg), in a 1:1:1:1:1 ratio once daily for 24 weeks. After this, the patients are followed without treatment for an additional 12 weeks. Patients discontinuing from the treatment period due to adverse effects or lack of efficacy are eligible for entry into the post-treatment phase.
# In the study, overall acne severity is rated as: none (no inflammatory acne lesions); mild (few to several papules or pustules, no nodulocystic lesions); moderate (several to many papules or pustules, few to several nodulocystic lesions); and severe (numerous or extensive papules or pustules, many, for example, at least about 5 or at least about 10, nodulocystic lesions).
# Treatment success is defined as at least moderate (about 50%) improvement on the following 7-point global response scale: • 0=completely cleared • 1=almost cleared (about 90% improvement) • 2=marked response (about 75% improvement) • 3=moderate response (about 50% improvement) • 4=slight response (about 25% improvement) • 5=condition unchanged • 6=condition worsened
# In this study, facial nodulocystic lesion count includes lesions greater than 5 mm in size. Facial papular/pustular lesion count includes lesions less than or equal to 5 mm in size. Facial non-inflammatory lesion count includes open and closed comedones.
# Sebum output is assessed every 4 weeks at selected centers using the Sebutape® patches, sold by Cuderm Corporation. Urinalysis, chemistry, and hematology values are monitored. Bone formation and resorption assessments (serum bone alkaline phosphatase and serum amino terminal telopeptides, respectively) at selected centers are monitored.
# Bone mineral density of spine and proximal femur at selected centers is monitored. Ligament calcification or osteophyte formation (lateral X-ray of the cervical and thoracic spine, and ankle calcaneous) is monitored. Epiphyseal growth plate closure (internal oblique X-ray of the ankle in patients less than or equal to 21 years old) is monitored.
# [2] = test system: patients with moderate to very severe plaque psoriasis; experiment: Open-label extension study of oral tazarotene (Example 4); assay type: in vivo, human; settings: 4.5 mg once daily, 12-week extension treatment period, both groups
# [3] = test system: patients treated for psoriasis; experiment: Phase 3 studies of orally administered tazarotene for psoriasis: adverse events (Table 1); assay type: in vivo, human; settings: Taz 4.5 mg
# Procedure: A series of Phase 3 studies are conducted on orally administered tazarotene for the treatment of psoriasis. Adverse events (side effects) are monitored. In addition, published data for acitretin's side effects are also considered.
# AP1 = AP1 antagonism
# [4] = 0.75 to 6 mg once daily for 24 weeks
# [5] = Study 3, treated with Tazarotene for 3 months (N = 220)
# [6] = Study 3, treated with Tazarotene for 6 months (N = 92)
# [7] = combined data from Studies 1 and 2 (N = 348)
structure (smiles),measurement,setting,value
CCOC(=O)c1ccc(C#Cc2ccc3c(c2)C(C)(C)CCS3)nc1 [tazarotene],patients withdrawing due to adverse events in the treatment period,[1]; 0.75 mg group (2/35),6%
same,patients withdrawing due to lack of efficacy,[1]; 0.75 mg group (7/35),20%
same,patients with either no acne or mild acne,"[1]; 0.75 mg group, end of the treatment phase, placebo 19%",34%
same,reduction in mean facial papule or pastule count,[1]; 0.75 mg group,37%
same,reduction in mean facial non-inflammatory lesion count,[1]; 0.75 mg group,46%
same,reduction in mean total facial nodulocystic lesion count,[1]; 0.75 mg group,66%
same,mean total facial nodulocystic lesion count at the end of the treatment period,"[1]; 0.75 mg group, from 12.2 at baseline",4.2
same,mean facial papule or pastule count at the end of the treatment period,"[1]; 0.75 mg group, from 32.3 at baseline",20.3
same,mean facial non-inflammatory lesion count at the end of the treatment period,"[1]; 0.75 mg group, from 56.3 at baseline",30.3
same,patients withdrawing due to adverse events in the treatment period,[1]; 1.5 mg group (0/37),0%
same,patients withdrawing due to lack of efficacy,[1]; 1.5 mg group (2/37),5%
same,reduction in mean facial papule or pastule count,[1]; 1.5 mg group,54%
same,reduction in mean facial non-inflammatory lesion count,[1]; 1.5 mg group,70%
same,reduction in mean total facial nodulocystic lesion count,[1]; 1.5 mg group,73%
same,mean total facial nodulocystic lesion count at the end of the treatment period,"[1]; 1.5 mg group, from 11.8 at baseline",3.2
same,mean facial papule or pastule count at the end of the treatment period,"[1]; 1.5 mg group, from 29.1 at baseline",13.3
same,mean facial non-inflammatory lesion count at the end of the treatment period,"[1]; 1.5 mg group, from 59.2 at baseline",17.8
same,incidence of treatment success (≧50% global improvement) vs placebo,"[1]; 3 mg and 6 mg, week 24 and throughout the post-treatment phase (p≦0.05)",significantly higher incidence of treatment success
same,patients withdrawing due to lack of efficacy,[1]; 3 mg group (0/37),0%
same,patients withdrawing due to adverse events in the treatment period,[1]; 3 mg group (2/37),5%
same,patients with either no acne or mild acne,"[1]; 3 mg group, end of the post-treatment phase",43%
same,reduction in mean facial papule or pastule count,[1]; 3 mg group,61%
same,reduction in mean facial non-inflammatory lesion count,[1]; 3 mg group,62%
same,reduction in mean total facial nodulocystic lesion count,[1]; 3 mg group,79%
same,mean total facial nodulocystic lesion count at the end of the treatment period,"[1]; 3 mg group, from 10.8 at baseline",2.3
same,mean facial papule or pastule count at the end of the treatment period,"[1]; 3 mg group, from 25.4 at baseline",10.0
same,mean facial non-inflammatory lesion count at the end of the treatment period,"[1]; 3 mg group, from 56.1 at baseline",21.3
same,median time to initial complete clearing of facial nodulocystic lesions,"[1]; 3 mg group, placebo 24 weeks (p=0.017)",16 weeks
same,patients withdrawing due to adverse events in the treatment period,[1]; 6 mg group (1/36),3%
same,patients withdrawing due to lack of efficacy,[1]; 6 mg group (2/36),6%
same,patients with either no acne or mild acne,"[1]; 6 mg group, end of the post-treatment phase",53%
same,reduction in mean facial papule or pastule count,[1]; 6 mg group,55%
same,reduction in mean facial non-inflammatory lesion count,[1]; 6 mg group,72%
same,reduction in mean total facial nodulocystic lesion count,[1]; 6 mg group,86%
same,mean total facial nodulocystic lesion count at the end of the treatment period,"[1]; 6 mg group, from 11.6 at baseline",1.6
same,mean facial papule or pastule count at the end of the treatment period,"[1]; 6 mg group, from 24.6 at baseline",11.1
same,mean facial non-inflammatory lesion count at the end of the treatment period,"[1]; 6 mg group, from 47.7 at baseline",13.5
same,median time to initial complete clearing of facial nodulocystic lesions,"[1]; 6 mg group, placebo 24 weeks (p=0.081)",16 weeks
same,overall acne severity,"[1]; 6 mg, from week 16 until the end of the post-treatment phase (p≦0.01)",reduces the overall acne severity significantly more than placebo
same,"bone formation and resorption (serum bone alkaline phosphatase, serum amino terminal telopeptides)",[1]; [4],do not appear to be altered
same,"changes in urinalysis, chemistry, or hematology measures (including liver function tests, triglycerides, total cholesterol, HDL cholesterol)",[1]; [4],None of the treatment groups show any consistent clinically significant changes
same,"ligament calcification, osteophyte formation, or changes in bone density",[1]; [4],"None of the treatment groups show any clinically significant ligament calcification, osteophyte formation, or changes in bone density"
same,percentage of patients with at least a 90% reduction in facial nodulocystic lesion count vs placebo,"[1]; 1.5, 3, and 6 mg groups, week 24",significantly greater
same,sebum secretion (Sebutape method),[1]; oral tazarotene 0.75 to 6 mg vs placebo,does not substantially reduce sebum secretion relative to placebo
same,patients with either no acne or mild acne,"[1]; three highest dose groups, end of the treatment phase, placebo 19%",More than 45%
same,patients achieving treatment success,"[1]; three highest doses, by week 12",more than 70%
same,patients achieving treatment success,"[1]; two highest doses, by week 24",more than 86%
same,incidence of asthenia,[2],6%
same,incidence of back pain,[2],11%
same,incidence of headache,[2],11%
same,incidence of infection,[2],10%
same,incidence of myalgia,[2],15%
same,Alopecia,[3]; [5],1 (0.5) NUMBER OF (%) OF PATIENTS
same,Arthralgia,[3]; [5],28 (12.7) NUMBER OF (%) OF PATIENTS
same,Atrophy of skin,[3]; [5],0 (0.0) NUMBER OF (%) OF PATIENTS
same,Back pain,[3]; [5],7 (3.2) NUMBER OF (%) OF PATIENTS
same,Cheilitis,[3]; [5],149 (67.7) NUMBER OF (%) OF PATIENTS
same,Dry Skin,[3]; [5],47 (21.4) NUMBER OF (%) OF PATIENTS
same,Dry mouth/Oral dryness,[3]; [5],11 (5.0) NUMBER OF (%) OF PATIENTS
same,Epistaxis,[3]; [5],1 (0.5) NUMBER OF (%) OF PATIENTS
same,Erythematous rash/Erythema,[3]; [5],0 (0.0) NUMBER OF (%) OF PATIENTS
same,Hyperesthesia,[3]; [5],0 (0.0) NUMBER OF (%) OF PATIENTS
same,Nail Disorder,[3]; [5],1 (0.5) NUMBER OF (%) OF PATIENTS
same,Paresthesia,[3]; [5],3 (1.4) NUMBER OF (%) OF PATIENTS
same,Paronychia/Nail disorder,[3]; [5],1 (0.5) NUMBER OF (%) OF PATIENTS
same,Pruritus,[3]; [5],11 (5.0) NUMBER OF (%) OF PATIENTS
same,Rhinitis,[3]; [5],0 (0.0) NUMBER OF (%) OF PATIENTS
same,Rigors/Chills,[3]; [5],1 (0.5) NUMBER OF (%) OF PATIENTS
same,Skin peeling/Desquamation,[3]; [5],3 (1.4) NUMBER OF (%) OF PATIENTS
same,Sticky skin/Skin disorder,[3]; [5],0 (0.0) NUMBER OF (%) OF PATIENTS
same,Xerophthalmia/Eye disorder,[3]; [5],3 (1.4) NUMBER OF (%) OF PATIENTS
same,Alopecia,[3]; [6],5 (5.4) NUMBER OF (%) OF PATIENTS
same,Arthralgia,[3]; [6],30 (32.6) NUMBER OF (%) OF PATIENTS
same,Atrophy of skin,[3]; [6],0 (0.0) NUMBER OF (%) OF PATIENTS
same,Back pain,[3]; [6],10 (10.9) NUMBER OF (%) OF PATIENTS
same,Cheilitis,[3]; [6],65 (70.7) NUMBER OF (%) OF PATIENTS
same,Dry Skin,[3]; [6],24 (26.1) NUMBER OF (%) OF PATIENTS
same,Dry mouth/Oral dryness,[3]; [6],2 (2.2) NUMBER OF (%) OF PATIENTS
same,Epistaxis,[3]; [6],0 (0.0) NUMBER OF (%) OF PATIENTS
same,Erythematous rash/Erythema,[3]; [6],0 (0.0) NUMBER OF (%) OF PATIENTS
same,Hyperesthesia,[3]; [6],0 (0.0) NUMBER OF (%) OF PATIENTS
same,Nail Disorder,[3]; [6],1 (1.1) NUMBER OF (%) OF PATIENTS
same,Paresthesia,[3]; [6],1 (1.1) NUMBER OF (%) OF PATIENTS
same,Paronychia/Nail disorder,[3]; [6],1 (1.1) NUMBER OF (%) OF PATIENTS
same,Pruritus,[3]; [6],3 (3.3) NUMBER OF (%) OF PATIENTS
same,Rhinitis,[3]; [6],0 (0.0) NUMBER OF (%) OF PATIENTS
same,Rigors/Chills,[3]; [6],1 (1.1) NUMBER OF (%) OF PATIENTS
same,Skin peeling/Desquamation,[3]; [6],1 (1.1) NUMBER OF (%) OF PATIENTS
same,Sticky skin/Skin disorder,[3]; [6],0 (0.0) NUMBER OF (%) OF PATIENTS
same,Xerophthalmia/Eye disorder,[3]; [6],1 (1.1) NUMBER OF (%) OF PATIENTS
same,Alopecia,[3]; [7],1 (0.3) NUMBER OF (%) OF PATIENTS
same,Arthralgia,[3]; [7],60 (17.2) NUMBER OF (%) OF PATIENTS
same,Atrophy of skin,[3]; [7],0 (0.0) NUMBER OF (%) OF PATIENTS
same,Back pain,[3]; [7],16 (4.6) NUMBER OF (%) OF PATIENTS
same,Cheilitis,[3]; [7],228 (65.5) NUMBER OF (%) OF PATIENTS
same,Dry Skin,[3]; [7],82 (23.6) NUMBER OF (%) OF PATIENTS
same,Dry mouth/Oral dryness,[3]; [7],11 (3.2) NUMBER OF (%) OF PATIENTS
same,Epistaxis,[3]; [7],2 (0.6) NUMBER OF (%) OF PATIENTS
same,Erythematous rash/Erythema,[3]; [7],2 (0.6) NUMBER OF (%) OF PATIENTS
same,Hyperesthesia,[3]; [7],0 (0.0) NUMBER OF (%) OF PATIENTS
same,Nail Disorder,[3]; [7],2 (0.6) NUMBER OF (%) OF PATIENTS
same,Paresthesia,[3]; [7],7 (2.0) NUMBER OF (%) OF PATIENTS
same,Paronychia/Nail disorder,[3]; [7],2 (0.6) NUMBER OF (%) OF PATIENTS
same,Pruritus,[3]; [7],21 (6.0) NUMBER OF (%) OF PATIENTS
same,Rhinitis,[3]; [7],8 (2.3) NUMBER OF (%) OF PATIENTS
same,Rigors/Chills,[3]; [7],9 (2.6) NUMBER OF (%) OF PATIENTS
same,Skin peeling/Desquamation,[3]; [7],3 (0.9) NUMBER OF (%) OF PATIENTS
same,Sticky skin/Skin disorder,[3]; [7],1 (0.3) NUMBER OF (%) OF PATIENTS
same,Xerophthalmia/Eye disorder,[3]; [7],8 (2.3) NUMBER OF (%) OF PATIENTS
same,AP1 antagonism,AP1,potent AP1 antagonist
